ChEMBL document CHEMBL1921705, “Thiophene inhibitors of PDE4: crystal structures show a second binding mode at the catalytic domain of PDE4D2” (Bioorg Med Chem Lett, 2011)
The source made the active and inactive calls. The rule behind the calls is not given here.

Columns and labels:
UMR106 [1] = experiment: Inhibition of PDE4D2 in rat UMR106 cells coexpressing pCRE-luc assessed as activation of cREB protein at 10 uM after 4 hrs by measuring luciferase activity by luminescence assay; type: cell-based
[2] = biological target: T1, 3',5'-cyclic-AMP phosphodiesterase 4D (Homo sapiens, UniProt Q08499); experiment: Inhibition of human recombinant PDE4D2 overexpressed in Escherichia coli after 15 mins using [3H]cAMP by scintillation proximity assay
T1 sequence (Q08499 whole entry): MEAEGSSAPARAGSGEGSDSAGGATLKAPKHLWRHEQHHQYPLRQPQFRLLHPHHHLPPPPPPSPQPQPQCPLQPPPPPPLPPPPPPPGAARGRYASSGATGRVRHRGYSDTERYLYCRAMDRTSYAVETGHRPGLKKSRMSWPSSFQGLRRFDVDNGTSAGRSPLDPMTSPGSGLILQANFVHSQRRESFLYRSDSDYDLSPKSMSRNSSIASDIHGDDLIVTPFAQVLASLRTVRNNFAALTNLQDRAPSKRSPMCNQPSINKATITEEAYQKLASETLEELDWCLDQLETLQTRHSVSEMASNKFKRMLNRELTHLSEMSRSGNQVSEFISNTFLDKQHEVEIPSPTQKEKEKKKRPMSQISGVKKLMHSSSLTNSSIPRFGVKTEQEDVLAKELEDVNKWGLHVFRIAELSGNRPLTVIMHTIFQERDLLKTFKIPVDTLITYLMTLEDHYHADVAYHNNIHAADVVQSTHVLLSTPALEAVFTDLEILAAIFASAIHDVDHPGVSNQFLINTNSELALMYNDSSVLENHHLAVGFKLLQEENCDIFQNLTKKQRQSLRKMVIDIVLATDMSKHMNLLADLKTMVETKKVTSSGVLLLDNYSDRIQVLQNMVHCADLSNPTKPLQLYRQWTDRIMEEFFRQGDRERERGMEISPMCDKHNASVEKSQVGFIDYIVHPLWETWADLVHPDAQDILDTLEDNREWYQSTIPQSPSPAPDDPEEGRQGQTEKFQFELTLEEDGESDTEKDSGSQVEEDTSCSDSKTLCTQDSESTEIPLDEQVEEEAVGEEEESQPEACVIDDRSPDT

UMR106 [3] = experiment: Inhibition of PDE4D2 in rat UMR106 cell lysates at 1 uM after 15 mins using [3H]cAMP by scintillation proximity assay; type: cell-free
[4] = biological target: T1, 3',5'-cyclic-AMP phosphodiesterase 4D; experiment: Inhibition of N-terminal 6His-tagged human recombinant PDE4D2 expressed in Escherichia coli BL21 (DE3) at 1 uM after 15 mins using [3H]cAMP by scintillation proximity assay
[5] = Inhibition of rat PDE4D2 in UMR106 cell lysates after 15 mins using [3H]cAMP by scintillation proximity assay; type: cell-free
[6] = Inhibition of PDE in rat UMR106 cells co-expressing CRE-luc assessed as PTH-induced cAMP accumulation by luciferase reporter gene assay; type: cell-based
UMR106 [7] = experiment: Inhibition of PDE4D2 in rat UMR106 cells coexpressing pCRE-luc assessed as activation of cREB protein after 4 hrs by measuring luciferase activity by luminescence assay; type: cell-based
UMR106 [8] = experiment: Inhibition of PDE4D2 in rat PTHrP-stimulated UMR106 cells coexpressing pCRE-luc assessed as activation of cREB protein after 4 hrs by measuring luciferase activity by luminescence assay; type: cell-based

CCOC(=O)c1c(NC(=O)Cc2ccccc2)sc2c1CCN(C(=O)OCC)C2
inhibition (UMR106 [1]): Active | IC50 [2]: 100 nM | inhibition (UMR106 [3]): 85% | inhibition [4]: 86%

CCOC(=O)c1c(NC(=O)Cc2ccccc2)sc2c1CCC2
inhibition (UMR106 [1]): Active

CCNC(=O)N1CCc2c(sc(NC(=O)Cc3ccccc3)c2C(=O)OCC)C1
inhibition [4]: 98%

CCOC(=O)c1c(NC(=O)c2cccc(S(=O)(=O)N3CCOCC3)c2)sc(C)c1C
inhibition (UMR106 [1]): Active

CCOC(=O)c1c(NC(=O)Cc2cccs2)sc2c1CCCC2
inhibition (UMR106 [1]): Active

N#Cc1c(NC(=O)Cc2ccccc2)sc2c1CCCC2
inhibition (UMR106 [3]): 24%

CCOC(=O)c1c(NC(=O)Cc2ccccc2)sc2c1CC(C)(C)OC2
inhibition (UMR106 [1]): Active

CCOC(=O)c1c(NC(=O)Cc2ccccn2)sc2c1CCN(C(=O)OCC)C2
IC50 [5]: 80 nM | inhibition (UMR106 [3]): 73% | inhibition [4]: 72%

CCOC(=O)N1CCc2c(sc(NC(=O)Cc3ccccc3)c2C(N)=O)C1
inhibition (UMR106 [3]): 18% | inhibition [4]: -1%

CCOC(=O)c1c(NC(=O)Cc2ccccc2)sc2c1CCNC2
inhibition (UMR106 [3]): 25%

CCNC(=O)N1CCc2c(sc(NC(=O)Cc3cccs3)c2C(=O)OC2CCCC2)C1
inhibition [4]: 88%

CCOC(=O)c1c(NCc2ccccc2)sc2c1CCN(C(=O)OCC)C2
inhibition (UMR106 [3]): 33%

CCOC(=O)c1c(NC(=O)CCc2ccccc2)sc2c1CCN(C(=O)OCC)C2
inhibition (UMR106 [3]): 22%

CCOC(=O)c1c(NC(=O)Cc2ccccc2)sc2c1CCN(C(C)=O)C2
IC50 [5]: 1000 nM | inhibition (UMR106 [3]): 50%

CCOC(=O)c1c(NC(=O)Cc2ccccc2)sc2c1CCCC2
inhibition (UMR106 [1]): Active | IC50 [2]: 1500 nM | inhibition [4]: 68%

CCOC(=O)c1c(NC(=O)Cc2ccccc2)sc2c1CCN(C(=O)OC(C)(C)C)C2
inhibition [4]: 38%

CCOC(=O)N1CCc2c(sc(NC(=O)Cc3ccccc3)c2C(=O)OC2CCCCC2)C1
inhibition [4]: 61%

CCOC(=O)c1c(NC(=O)Cc2cccc(OC)c2)sc2c1CCN(C(=O)OCC)C2
inhibition (UMR106 [3]): 9%

COc1ccc(C2CNC(=O)C2)cc1OC1CCCC1 (stereo unspecified) [ROLIPRAM]
IC50 [6]: 600 nM

O=C(Cc1ccccn1)Nc1sc2c(c1C(=O)OC1CCCC1)CCN(C(=O)NCc1ccccc1)C2
inhibition [4]: 65%

CCOC(=O)c1c(NC(=O)Cc2ccc(OC)cc2)sc2c1CCN(C(=O)OCC)C2
inhibition (UMR106 [3]): 26% | inhibition [4]: 23%

NC(=O)c1c(NC(=O)Cc2ccccc2)sc2c1CCCC2
inhibition (UMR106 [3]): 15%

CCOC(=O)c1c(NC(=O)Cc2ccccc2OC)sc2c1CCN(C(=O)OCC)C2
inhibition (UMR106 [3]): 37%

CCOC(=O)c1c(NC(=O)Cc2ccc(S(C)(=O)=O)cc2)sc2c1CCN(C(=O)OCC)C2
inhibition (UMR106 [3]): -4%

CCOC(=O)c1c(NC(=O)Cc2cccs2)sc2c1CCN(C(=O)OCC)C2
IC50 [5]: 182 nM | inhibition (UMR106 [3]): 70% | inhibition [4]: 98%

CCOC(=O)c1c(NC(=O)c2ccccc2)sc2c1CCN(C(=O)OCC)C2
inhibition (UMR106 [3]): 14%

CCOC(=O)N1CCc2c(sc(NC(=O)Cc3cccs3)c2C(=O)OC2CCCC2)C1
inhibition (UMR106 [7]): Dose-dependent effect | inhibition [4]: 95% | inhibition (UMR106 [8]): Dose-dependent effect
